Measured values taken from ChEMBL document CHEMBL4052741, “Macrocyclic inhibitors of Factor XIa: Discovery of alkyl-substituted macrocyclic amide linkers with improved potency” (Bioorg Med Chem Lett, 2017).

Legend:
Plasma = experiment: Anticoagulant activity in human platelet rich plasma assessed as plasma concentration required for 50% increase in clotting time by aPTT assay; format: functional
Coagulation factor XI = Coagulation factor XI (Homo sapiens, UniProt P03951); experiment: Inhibition of human Factor XIa using S-2366 as chromogenic substrate after 60 mins by Lineweaver-Burk plot analysis
[1] = Half life in human liver microsomes; format: ADME, microsome
[2] = Permeability of the compound from apical to basolateral side in human Caco2 cells; format: ADME, cell-based; conditions: Caco-2, read-out: permeability
[3] = Permeability of the compound from basolateral to apical side in human Caco2 cells; format: ADME, cell-based; conditions: Caco-2, read-out: permeability
[4] = Clearance in Sprague-Dawley rat at 0.55 mg/kg, iv or 1.09 mg/kg, po administered as cassette dose by LC-MS/MS analysis; format: ADME, organism-based; conditions: in vivo
[5] = AUC in Sprague-Dawley rat at 0.55 mg/kg, iv or 1.09 mg/kg, po by LC-MS/MS analysis; format: ADME, organism-based; conditions: in vivo
[6] = Oral bioavailability in Sprague-Dawley rat at 1.09 mg/kg administered as cassette dose by LC-MS/MS analysis; format: ADME, organism-based; conditions: in vivo
[7] = Volume of distribution at steady state in Sprague-Dawley rat at 0.55 mg/kg, iv or 1.09 mg/kg, po administered as cassette dose by LC-MS/MS analysis; format: ADME, organism-based; conditions: in vivo, read-out: Vdss
[8] = Half life in Sprague-Dawley rat at 0.55 mg/kg, iv or 1.09 mg/kg, po administered as cassette dose by LC-MS/MS analysis; format: ADME, organism-based; conditions: in vivo
[9] = Protein binding in human plasma; format: ADME, cell-free; conditions: read-out: PPB (converted)
[10] = Clearance in Sprague-Dawley rat at 0.55 mg/kg, iv or 1.11 mg/kg, po administered as cassette dose by LC-MS/MS analysis; format: ADME, organism-based; conditions: in vivo
[11] = Oral bioavailability in Sprague-Dawley rat at 1.11 mg/kg by LC-MS/MS analysis; format: ADME, organism-based; conditions: in vivo
[12] = Half life in Sprague-Dawley rat at 0.55 mg/kg, iv or 1.11 mg/kg, po administered as cassette dose by LC-MS/MS analysis; format: ADME, organism-based; conditions: in vivo
[13] = Volume of distribution at steady state in Sprague-Dawley rat at 0.55 mg/kg, iv or 1.11 mg/kg, po administered as cassette dose by LC-MS/MS analysis; format: ADME, organism-based; conditions: in vivo, read-out: Vdss
[14] = AUC in Sprague-Dawley rat at 0.55 mg/kg, iv or 1.11 mg/kg, po by LC-MS/MS analysis; format: ADME, organism-based; conditions: in vivo
[15] = AUC in Sprague-Dawley rat at 0.75 mg/kg, iv or 1.5 mg/kg, po by LC-MS/MS analysis; format: ADME, organism-based; conditions: in vivo
[16] = Half life in Sprague-Dawley rat at 0.75 mg/kg, iv or 1.5 mg/kg, po administered as cassette dose by LC-MS/MS analysis; format: ADME, organism-based; conditions: in vivo
[17] = Clearance in Sprague-Dawley rat at 0.75 mg/kg, iv or 1.5 mg/kg, po administered as cassette dose by LC-MS/MS analysis; format: ADME, organism-based; conditions: in vivo
[18] = Volume of distribution at steady state in Sprague-Dawley rat at 0.75 mg/kg, iv or 1.5 mg/kg, po administered as cassette dose by LC-MS/MS analysis; format: ADME, organism-based; conditions: in vivo, read-out: Vdss
[19] = Oral bioavailability in Sprague-Dawley rat at 1.5 mg/kg by LC-MS/MS analysis; format: ADME, organism-based; conditions: in vivo

Coagulation factor XI, sequence (P03951 19-387 limits assumed): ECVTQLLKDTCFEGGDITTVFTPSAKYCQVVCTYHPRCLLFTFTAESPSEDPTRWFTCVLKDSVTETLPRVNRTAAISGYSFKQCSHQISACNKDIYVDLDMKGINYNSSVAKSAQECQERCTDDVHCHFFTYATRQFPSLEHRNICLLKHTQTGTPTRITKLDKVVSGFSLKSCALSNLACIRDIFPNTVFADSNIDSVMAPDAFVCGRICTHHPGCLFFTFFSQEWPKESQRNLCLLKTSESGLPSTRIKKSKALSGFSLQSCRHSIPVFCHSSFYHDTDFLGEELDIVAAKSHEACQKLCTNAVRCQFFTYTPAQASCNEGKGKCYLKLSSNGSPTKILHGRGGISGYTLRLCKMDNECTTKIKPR
Coagulation factor XI, sequence (P03951 388-625 limits assumed): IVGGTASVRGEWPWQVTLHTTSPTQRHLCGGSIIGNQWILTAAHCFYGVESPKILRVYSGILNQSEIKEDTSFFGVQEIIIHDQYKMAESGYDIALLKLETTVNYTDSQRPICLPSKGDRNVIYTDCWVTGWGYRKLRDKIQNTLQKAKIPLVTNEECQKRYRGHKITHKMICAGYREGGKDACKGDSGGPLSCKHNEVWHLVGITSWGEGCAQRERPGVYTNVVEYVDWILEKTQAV

## COC(=O)Nc1ccc2c(c1)NC(=O)C[C@H](C)CCC[C@H](NC(=O)/C=C/c1cc(Cl)ccc1-n1cnnn1)c1nc-2c[nH]1
Plasma
  EC1.5: 27 µM

## COC(=O)Nc1ccc2c(c1)NC(=O)C[C@@H](C)CCC[C@H](NC(=O)c1c(F)cc(C)cc1F)c1nc-2c(Cl)[nH]1
Coagulation factor XI
  Ki: 44 nM
[1]
  half-life: 45 min
[2]
  Papp A→B: 1.8 ×10⁻⁶ cm/s
Plasma
  EC1.5: 12 µM
[3]
  Papp B→A: 25.1 ×10⁻⁶ cm/s

## COC(=O)Nc1ccc2c(c1)NC(=O)[C@H](C(C)C)CCC[C@H](NC(=O)/C=C/c1cc(Cl)ccc1-n1cnnn1)c1nc-2c[nH]1
Coagulation factor XI
  Ki: 0.14 nM
Plasma
  EC1.5: 1.1 µM

## COC(=O)Nc1ccc2c(c1)NC(=O)CC/C=C/C[C@H](NC(=O)/C=C/c1cc(Cl)ccc1-n1cnnn1)c1nc-2c(Cl)[nH]1
[4]
  clearance: 24 mL/min/kg
[5]
  AUC: 0.002 µM·h
[2]
  Papp A→B: < 1.5 ×10⁻⁶ cm/s
[6]
  bioavailability: 0.2%
[7]
  Vd: 0.4 L/kg
[8]
  half-life: 42 min
[3]
  Papp B→A: 5.8 ×10⁻⁶ cm/s

## COC(=O)Nc1ccc2c(c1)NC(=O)C[C@@H](C)CCC[C@H](NC(=O)/C=C/c1cc(Cl)ccc1-n1cnnn1)c1nc-2c[nH]1
[9]
  fraction unbound: 0.02
Plasma
  EC1.5: 1.1 µM

## COC(=O)Nc1ccc2c(c1)NC(=O)CC(C)CC[C@H](NC(=O)/C=C/c1cc(Cl)ccc1-n1cnnn1)c1nc-2c[nH]1 (single isomer, unassigned; diastereomer A)
Coagulation factor XI
  Ki: 36 nM
Plasma
  EC1.5: 37 µM

## COC(=O)Nc1ccc2c(c1)NC(=O)C(C)CCCC[C@H](NC(=O)/C=C/c1cc(Cl)ccc1-n1cnnn1)c1nc-2c[nH]1 (single isomer, unassigned; diastereomer B)
Coagulation factor XI
  Ki: 31 nM
Plasma
  EC1.5: 32 µM

## COC(=O)Nc1ccc2c(c1)NC(=O)CC(C)CC[C@H](NC(=O)/C=C/c1cc(Cl)ccc1-n1cnnn1)c1nc-2c[nH]1 (single isomer, unassigned; diastereomer B)
Coagulation factor XI
  Ki: 35 nM
Plasma
  EC1.5: 31 µM

## COC(=O)Nc1ccc2c(c1)NC(=O)CCCCC[C@H](NC(=O)/C=C/c1cc(Cl)ccc1-n1cnnn1)c1nc-2c[nH]1
[9]
  fraction unbound: 0.038

## COC(=O)Nc1ccc2c(c1)NC(=O)[C@@H](C)CCC[C@H](NC(=O)/C=C/c1cc(Cl)ccc1-n1cnnn1)c1nc-2c[nH]1
Plasma
  EC1.5: 0.63 µM

## COC(=O)Nc1ccc2c(c1)NC(=O)CC/C=C/C[C@H](NC(=O)c1c(F)cc(C)cc1F)c1nc-2c(Cl)[nH]1
Coagulation factor XI
  Ki: 16 nM
[10]
  clearance: 5.6 mL/min/kg
[11]
  bioavailability: 41%
[12]
  half-life: 54 min
[1]
  half-life: 17 min
[2]
  Papp A→B: < 1.5 ×10⁻⁶ cm/s
Plasma
  EC1.5: 6.6 µM
[13]
  Vd: 0.4 L/kg
[14]
  AUC: 2.08 µM·h
[3]
  Papp B→A: 20 ×10⁻⁶ cm/s

## COC(=O)Nc1ccc2c(c1)NC(=O)[C@H](C)CCC[C@H](NC(=O)/C=C/c1cc(Cl)ccc1-n1cnnn1)c1nc-2c[nH]1
Plasma
  EC1.5: 0.39 µM

## COC(=O)Nc1ccc2c(c1)NC(=O)C(C)C/C=C/C[C@H](NC(=O)/C=C/c1cc(Cl)ccc1-n1cnnn1)c1nc-2c[nH]1 (single isomer, unassigned; diastereomer B)
Coagulation factor XI
  Ki: 2.7 nM
Plasma
  EC1.5: 1.2 µM

## COC(=O)Nc1ccc2c(c1)NC(=O)C[C@@H](C)/C=C/C[C@H](NC(=O)/C=C/c1cc(Cl)ccc1-n1cnnn1)c1nc-2c[nH]1
Coagulation factor XI
  Ki: 0.13 nM
Plasma
  EC1.5: 0.38 µM

## COC(=O)Nc1ccc2c(c1)NC(=O)C(C)CCCC[C@H](NC(=O)/C=C/c1cc(Cl)ccc1-n1cnnn1)c1nc-2c[nH]1 (single isomer, unassigned; diastereomer A)
Coagulation factor XI
  Ki: 6.5 nM
Plasma
  EC1.5: 5.3 µM

## COC(=O)Nc1ccc2c(c1)NC(=O)[C@H](C)CCC[C@H](NC(=O)/C=C/c1cc(Cl)ccc1-n1cnnn1)c1nc-2c(Cl)[nH]1
Coagulation factor XI
  Ki: 0.07 nM
Plasma
  EC1.5: 1.2 µM

## COC(=O)Nc1ccc2c(c1)NC(=O)[C@H](C)CCC[C@H](NC(=O)c1c(F)cc(C)cc1F)c1nc-2c(Cl)[nH]1
Coagulation factor XI
  Ki: 10 nM
[1]
  half-life: 8 min
[2]
  Papp A→B: < 1.5 ×10⁻⁶ cm/s
Plasma
  EC1.5: 2 µM
[3]
  Papp B→A: 11.1 ×10⁻⁶ cm/s

## COC(=O)Nc1ccc2c(c1)NC(=O)CCC(C)CC[C@H](NC(=O)/C=C/c1cc(Cl)ccc1-n1cnnn1)c1nc-2c[nH]1 (single isomer, unassigned; diastereomer B)
Coagulation factor XI
  Ki: 18 nM
Plasma
  EC1.5: 12 µM

## COC(=O)Nc1ccc2c(c1)NC(=O)C[C@H](C)/C=C/C[C@H](NC(=O)/C=C/c1cc(Cl)ccc1-n1cnnn1)c1nc-2c[nH]1
Coagulation factor XI
  Ki: 2 nM
Plasma
  EC1.5: 0.98 µM

## CC[C@H]1CCC[C@H](NC(=O)/C=C/c2cc(Cl)ccc2-n2cnnn2)c2nc(c[nH]2)-c2ccc(NC(=O)OC)cc2NC1=O
Plasma
  EC1.5: 4 µM

## COC(=O)Nc1ccc2c(c1)NC(=O)[C@@H](C(C)C)CCC[C@H](NC(=O)/C=C/c1cc(Cl)ccc1-n1cnnn1)c1nc-2c[nH]1
Coagulation factor XI
  Ki: 21 nM
Plasma
  EC1.5: 64 µM

## COC(=O)Nc1ccc2c(c1)NC(=O)C[C@@H](C)CCC[C@H](NC(=O)/C=C/c1cc(Cl)ccc1-n1cnnn1)c1nc-2c(Cl)[nH]1
Coagulation factor XI
  Ki: 0.06 nM
Plasma
  EC1.5: 0.57 µM

## COC(=O)Nc1ccc2c(c1)NC(=O)C(C)C/C=C/C[C@H](NC(=O)/C=C/c1cc(Cl)ccc1-n1cnnn1)c1nc-2c[nH]1 (single isomer, unassigned; diastereomer A)
Coagulation factor XI
  Ki: 0.33 nM
Plasma
  EC1.5: 0.67 µM

## COC(=O)Nc1ccc2c(c1)NC(=O)C[C@@H](C)/C=C/C[C@H](NC(=O)c1c(F)cc(C)cc1F)c1nc-2c(Cl)[nH]1
Coagulation factor XI
  Ki: 12 nM
[15]
  AUC: 0.991 µM·h
[16]
  half-life: 54 min
[1]
  half-life: 35 min
[2]
  Papp A→B: < 1.5 ×10⁻⁶ cm/s
[17]
  clearance: 6 mL/min/kg
Plasma
  EC1.5: 2.7 µM
[18]
  Vd: 0.3 L/kg
[3]
  Papp B→A: 18.9 ×10⁻⁶ cm/s
[19]
  bioavailability: 16%

## COC(=O)Nc1ccc2c(c1)NC(=O)CCC(C)CC[C@H](NC(=O)/C=C/c1cc(Cl)ccc1-n1cnnn1)c1nc-2c[nH]1 (single isomer, unassigned; diastereomer A)
Coagulation factor XI
  Ki: 5.9 nM
Plasma
  EC1.5: 2.5 µM

## CC[C@@H]1CCC[C@H](NC(=O)/C=C/c2cc(Cl)ccc2-n2cnnn2)c2nc(c[nH]2)-c2ccc(NC(=O)OC)cc2NC1=O
Plasma
  EC1.5: 0.52 µM
